This passage reports IC50 results from US20240409585A1, “MACROCYCLIC IMMUNOMODULATORS” (priority 2021, published 2024).

Structures are written as SMILES. Bridge positions count the residues as written; N and C are the ends. Square brackets hold non-standard residues; d marks the D form. Peptide text beside a SMILES is read from it. * marks the point of attachment. ξ: configuration not given here. Phe(4-COOH) = N[C@@H](Cc1ccc(C(=O)O)cc1)C(=O)O; Trp(7-Me) = Cc1cccc2c(C[C@H](N)C(=O)O)c[nH]c12; Bip = N[C@@H](Cc1ccc(-c2ccccc2)cc1)C(=O)O; Phe(2-CN) = N#Cc1ccccc1C[C@H](N)C(=O)O; Phe(3-Me) = Cc1cccc(C[C@H](N)C(=O)O)c1; Phe(2-Me) = Cc1ccccc1C[C@H](N)C(=O)O; Val(3-OH) = CC(C)(O)[C@H](N)C(=O)O; aIle = CC[C@@H](C)[C@H](N)C(=O)O; 3Pal = N[C@@H](Cc1cccnc1)C(=O)O; 4Pal = N[C@@H](Cc1ccncc1)C(=O)O; Cha = N[C@@H](CC1CCCCC1)C(=O)O; Cit = NC(=O)NCCC[C@H](N)C(=O)O; Ile(3ξ) = CCC(C)[C@H](N)C(=O)O; Thr(3ξ) = CC(O)[C@H](N)C(=O)O; Carboxymethyl = O=C(O)C*; NMeA = CN[C@@H](C)C(=O)O; Orn = NCCC[C@H](N)C(=O)O; Dab = NCC[C@H](N)C(=O)O; Dap = NC[C@H](N)C(=O)O

For this experiment, the target named is T1, PE-labeled human PD-L1-Ig binding to Jurkat cell line over-expressing human PD-1 (Jurkat-PD-1) (Homo sapiens, UniProt Q15116).
T1 construct: expressed in transfected cells; host or cells: Jurkat
T1 sequence (Q15116 25-288): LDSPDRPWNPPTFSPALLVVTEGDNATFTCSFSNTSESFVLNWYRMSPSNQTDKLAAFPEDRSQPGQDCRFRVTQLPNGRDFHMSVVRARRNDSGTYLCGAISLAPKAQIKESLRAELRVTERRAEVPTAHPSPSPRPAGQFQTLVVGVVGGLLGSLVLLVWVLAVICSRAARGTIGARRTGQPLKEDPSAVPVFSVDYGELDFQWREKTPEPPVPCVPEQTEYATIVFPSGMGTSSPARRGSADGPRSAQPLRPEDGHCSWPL
The experiment in a line: Jurkat-PD-1 Cell Binding High-Content Screening Assay (CBA): Method 1. As to conditions: Jurkat-hPD-1 cells, PE-labeled PD-L1-Ig 20 nM final; read-out: Jurkat HPDL1 PD1 IC50 (uM) (Method 1).
As to `CCC(C)[C@@H]1NC(=O)[C@H](Cc2ccc(-c3ccccc3)cc2)NC(=O)[C@H](CC(C)C)NC(=O)[C@H](Cc2c[nH]c3ccccc23)NC(=O)[C@H](CC(=O)O)NC(=O)[C@H](Cc2ccc(OCC(=O)O)cc2)NC(=O)[C@H](C(C)O)NC(=O)CSC[C@@H](C(=O)N[C@@H](CC(N)=O)C(=O)O)NC(=O)[C@H](CO)NC(=O)[C@H](C(C)C)NC(=O)[C@H](CC(C)C)NC(=O)[C@H](CCN)NC(=O)[C@@H](CC(C)C)NC(=O)[C@H](C)N(C)C1=O` (stereo partly drawn) [Compound 2220] ({CH2CO}-[Thr(3ξ)]Y(Carboxymethyl)DWL[Bip][Ile(3ξ)][NMeA][dL][Dab]LVSCN-OH; thioether N-14), the concentration for half-maximal inhibition (IC50) (usually the point on the concentration scale where inhibition reaches its midpoint) was found to be 0.04 µM.

As for `CC(C)C[C@@H]1NC(=O)[C@H](Cc2c[nH]c3ccccc23)NC(=O)[C@H](CC(=O)O)NC(=O)[C@H](Cc2ccccc2C#N)NC(=O)[C@H](Cc2ccccc2)NC(=O)CSC[C@@H](C(=O)N[C@@H](C)C(N)=O)NC(=O)[C@H](CO)NC(=O)[C@H](C(C)C)NC(=O)[C@H](CC(C)C)NC(=O)[C@H](CC(N)=O)NC(=O)[C@@H](C)NC(=O)[C@H](C)N(C)C(=O)[C@H](C(C)C)NC(=O)[C@H](Cc2ccc(-c3ccccc3)cc2)NC1=O` [Compound 1806] ({CH2CO}-F[Phe(2-CN)]DWL[Bip]V[NMeA][dA]NLVSCA-NH2; thioether N-14), the IC50 turned out to be 0.23 µM.

For `Cc1ccccc1C[C@@H]1NC(=O)[C@H](CC(=O)O)NC(=O)[C@H](Cc2ccc(O)cc2)NC(=O)[C@H](CC(N)=O)NC(=O)CSC[C@@H](C(=O)N[C@@H](C)C(N)=O)NC(=O)[C@H]([C@@H](C)O)NC(=O)[C@H](C(C)C)NC(=O)[C@H](CC(C)C)NC(=O)[C@H](CCCNC(=N)N)NC(=O)[C@@H](CC(C)C)NC(=O)[C@H](C)N(C)C(=O)[C@H](CCCNC(=N)N)NC(=O)[C@H](Cc2ccc(-c3ccccc3)cc2)NC(=O)[C@H](C(C)C)NC1=O` [Compound 1197] ({CH2CO}-NYD[Phe(2-Me)]V[Bip]R[NMeA][dL]RLVTCA-NH2; thioether N-14), the concentration for half-maximal inhibition (IC50) stood at 0.36 µM.

In the case of `Cc1cccc(C[C@@H]2NC(=O)[C@H](CC(=O)O)NC(=O)[C@H](Cc3cccnc3)NC(=O)[C@H](CN)NC(=O)CSC[C@@H](C(=O)N[C@@H](C)C(N)=O)NC(=O)[C@H](CO)NC(=O)[C@H](C(C)C)NC(=O)[C@H](CC(C)C)NC(=O)[C@H](CC(N)=O)NC(=O)[C@@H](C)NC(=O)[C@H](C)N(C)C(=O)[C@H](C(C)C)NC(=O)[C@H](Cc3ccc(-c4ccccc4)cc3)NC(=O)[C@H](CC(C)C)NC2=O)c1` [Compound 1584] ({CH2CO}-[Dap][3Pal]D[Phe(3-Me)]L[Bip]V[NMeA][dA]NLVSCA-NH2; thioether N-14), the IC50 was 0.02 µM.

As for `CC(C)C[C@@H]1NC(=O)[C@H](CCN)NC(=O)[C@@H](CC(C)C)NC(=O)[C@H](C)N(C)C(=O)[C@H](CCCN)NC(=O)[C@H](Cc2ccc(-c3ccccc3)cc2)NC(=O)[C@H](C(C)C)NC(=O)[C@H](Cc2c[nH]c3ccccc23)NC(=O)[C@H](CC(=O)O)NC(=O)[C@H](Cc2ccc(O)cc2)NC(=O)[C@H](CC(N)=O)NC(=O)CSC[C@@H](C(=O)N[C@@H](C)C(N)=O)NC(=O)[C@H]([C@@H](C)O)NC(=O)[C@H](C(C)C)NC1=O` [Compound 1266] ({CH2CO}-NYDWV[Bip][Orn][NMeA][dL][Dab]LVTCA-NH2; thioether N-14), the IC50 turned out to be 0.03 µM.

As for `CC(C)C[C@@H]1NC(=O)[C@H](CCCN)NC(=O)[C@@H](CC(C)C)NC(=O)[C@H](C)N(C)C(=O)[C@H](CCCNC(=N)N)NC(=O)[C@H](Cc2ccc(-c3ccccc3)cc2)NC(=O)[C@H](C(C)C)NC(=O)[C@H](Cc2c[nH]c3ccccc23)NC(=O)[C@H](CC(=O)O)NC(=O)[C@H](Cc2ccc(O)cc2)NC(=O)[C@H](Cc2ccccc2)NC(=O)CSC[C@@H](C(=O)N[C@@H](CO)C(N)=O)NC(=O)[C@H]([C@@H](C)O)NC(=O)[C@H](C(C)C)NC1=O` [Compound 1176] ({CH2CO}-FYDWV[Bip]R[NMeA][dL][Orn]LVTCS-NH2; thioether N-14), the IC50 worked out at 0.07 µM.

Take `CC(C)C[C@H]1NC(=O)[C@H](C)N(C)C(=O)[C@H](CCCCN)NC(=O)[C@H](Cc2ccc(-c3ccccc3)cc2)NC(=O)[C@H](C(C)C)NC(=O)[C@H](Cc2c[nH]c3ccccc23)NC(=O)[C@H](CC(=O)O)NC(=O)[C@H](Cc2ccncc2)NC(=O)[C@H](Cc2ccc(OCC(=O)O)cc2)NC(=O)CSC[C@@H](C(N)=O)NC(=O)[C@H](CO)NC(=O)[C@H](C(C)C)NC(=O)[C@H](CC2CCCCC2)NC(=O)[C@H](CC(N)=O)NC1=O` [Compound 2244] ({CH2CO}-Y(Carboxymethyl)[4Pal]DWV[Bip]K[NMeA][dL]N[Cha]VSC-NH2; thioether N-14): the 50% inhibitory concentration (IC50) is 0.04 µM.

Regarding `CC(C)C[C@@H]1NC(=O)[C@H](CCN)NC(=O)[C@@H](CC(C)C)NC(=O)[C@H](C)N(C)C(=O)[C@H](CCCNC(N)=O)NC(=O)[C@H](Cc2ccc(-c3ccccc3)cc2)NC(=O)[C@H](C(C)C)NC(=O)[C@H](Cc2c[nH]c3ccccc23)NC(=O)[C@H](CC(=O)O)NC(=O)[C@H](Cc2ccc(O)cc2)NC(=O)[C@H](CCCNC(=N)N)NC(=O)CSC[C@@H](C(=O)N[C@@H](C)C(N)=O)NC(=O)[C@H]([C@@H](C)O)NC(=O)[C@H](C(C)C)NC1=O` [Compound 1351] ({CH2CO}-RYDWV[Bip][Cit][NMeA][dL][Dab]LVTCA-NH2; thioether N-14), the IC50 is 0.05 µM.

`CC(C)C[C@@H]1NC(=O)[C@H](CCN)NC(=O)[C@@H](CC(C)C)NC(=O)[C@H](C)N(C)C(=O)[C@H](CCCN)NC(=O)[C@H](Cc2ccc(-c3ccccc3)cc2)NC(=O)[C@H](C(C)C)NC(=O)[C@H](Cc2c[nH]c3ccccc23)NC(=O)[C@H](CC(=O)O)NC(=O)[C@H](Cc2ccc(O)cc2)NC(=O)[C@H](Cc2cnc[nH]2)NC(=O)CSC[C@@H](C(=O)N[C@@H](C)C(N)=O)NC(=O)[C@H]([C@@H](C)O)NC(=O)[C@H](C(C)C)NC1=O` [Compound 1362] ({CH2CO}-HYDWV[Bip][Orn][NMeA][dL][Dab]LVTCA-NH2; thioether N-14): the IC50 turned out to be 0.03 µM.

Regarding `CC[C@@H](C)[C@@H]1NC(=O)[C@H](Cc2ccc(-c3ccccc3)cc2)NC(=O)[C@H](CC(C)C)NC(=O)[C@H](Cc2cccc(C)c2)NC(=O)[C@H](CC(=O)O)NC(=O)[C@H](Cc2ccc(C(=O)O)cc2)NC(=O)[C@H](Cc2ccc(OCC(=O)O)cc2)NC(=O)CSC[C@@H](C(N)=O)NC(=O)[C@H](CO)NC(=O)[C@H](C(C)C)NC(=O)[C@H](CC(C)C)NC(=O)[C@H](CC(N)=O)NC(=O)[C@@H](CC(C)C)NC(=O)[C@H](C)N(C)C1=O` [Compound 1639] ({CH2CO}-Y(Carboxymethyl)[Phe(4-COOH)]D[Phe(3-Me)]L[Bip][aIle][NMeA][dL]NLVSC-NH2; thioether N-14), the 50% inhibitory concentration (IC50) came to 0.06 µM.

As to `Cc1cccc(C[C@@H]2NC(=O)[C@H](CC(=O)O)NC(=O)[C@H](Cc3ccc(O)cc3)NC(=O)[C@H](CC(N)=O)NC(=O)CSC[C@@H](C(=O)N[C@H](C)C(N)=O)NC(=O)[C@H]([C@@H](C)O)NC(=O)[C@H](C(C)C)NC(=O)[C@H](CC3CCCCC3)NC(=O)[C@H](CCN)NC(=O)[C@@H](CC(C)C)NC(=O)[C@H](C)N(C)C(=O)[C@H](CCCNC(N)=O)NC(=O)[C@H](Cc3ccc(-c4ccccc4)cc3)NC(=O)[C@H](C(C)(C)O)NC2=O)c1` [Compound 1704] ({CH2CO}-NYD[Phe(3-Me)][Val(3-OH)][Bip][Cit][NMeA][dL][Dab][Cha]VTC[dA]-NH2; thioether N-14), the IC50 is 0.15 µM.

On to `Cc1cccc2c(C[C@@H]3NC(=O)[C@H](CC(=O)O)NC(=O)[C@H](Cc4ccc(O)cc4)NC(=O)[C@H](Cc4ccccc4)NC(=O)CSC[C@@H](C(=O)N[C@@H](C)C(N)=O)NC(=O)[C@H]([C@@H](C)O)NC(=O)[C@H](C(C)C)NC(=O)[C@H](CC(C)C)NC(=O)[C@H](CCCNC(=N)N)NC(=O)[C@@H](CC(C)C)NC(=O)[C@H](C)N(C)C(=O)[C@H](CCCNC(=N)N)NC(=O)[C@H](Cc4ccc(-c5ccccc5)cc4)NC(=O)[C@H](C(C)C)NC3=O)c[nH]c12` [Compound 1097] ({CH2CO}-FYD[Trp(7-Me)]V[Bip]R[NMeA][dL]RLVTCA-NH2; thioether N-14), for which the concentration for half-maximal inhibition (IC50) stood at 0.21 µM.

On to `CC(=O)NCCCC[C@@H]1NC(=O)[C@H](Cc2ccc(-c3ccccc3)cc2)NC(=O)[C@H](Cc2ccc(O)cc2)NC(=O)[C@H](Cc2cccc(C)c2)NC(=O)[C@H](CC(=O)O)NC(=O)[C@H](Cc2ccc(OCC(=O)O)cc2)NC(=O)[C@H](C(C)O)NC(=O)CSC[C@@H](C(N)=O)NC(=O)[C@H](C(C)O)NC(=O)[C@H](C(C)C)NC(=O)[C@H](CC2CCCCC2)NC(=O)[C@H](CCN)NC(=O)[C@@H](CC(C)C)NC(=O)[C@H](C)N(C)C1=O` (stereo partly drawn) [Compound 2255] ({CH2CO}-[Thr(3ξ)]Y(Carboxymethyl)D[Phe(3-Me)]Y[Bip]K(Ac)[NMeA][dL][Dab][Cha]V[Thr(3ξ)]C-NH2; thioether N-14), for which the half-maximal inhibitory concentration (IC50) was found to be 0.06 µM.

Consider `CC(C)C[C@@H]1NC(=O)[C@H](CCN)NC(=O)[C@@H](CC(C)C)NC(=O)[C@H](C)N(C)C(=O)[C@H](CCCNC(=N)N)NC(=O)[C@H](Cc2ccc(-c3ccccc3)cc2)NC(=O)[C@H](C(C)C)NC(=O)[C@H](Cc2c[nH]c3ccccc23)NC(=O)[C@H](CC(=O)O)NC(=O)[C@H](Cc2ccc(O)cc2)NC(=O)[C@H](Cc2ccccc2)NC(=O)CSC[C@@H](C(=O)N[C@@H](CO)C(N)=O)NC(=O)[C@H]([C@@H](C)O)NC(=O)[C@H](C(C)C)NC1=O` [Compound 1178] ({CH2CO}-FYDWV[Bip]R[NMeA][dL][Dab]LVTCS-NH2; thioether N-14), for which the half-maximal inhibitory concentration (IC50) worked out at 0.05 µM.

With `CC(C)C[C@@H]1NC(=O)[C@H](Cc2c[nH]c3ccccc23)NC(=O)[C@H](CC(=O)O)NC(=O)[C@H](Cc2ccc(C(=O)O)cc2)NC(=O)[C@H](Cc2ccc(OCC(=O)O)cc2)NC(=O)CSC[C@@H](C(N)=O)NC(=O)[C@H](CO)NC(=O)[C@H](C(C)C)NC(=O)[C@H](CC2CCCCC2)NC(=O)[C@H](CCN)NC(=O)[C@@H](CC(C)C)NC(=O)[C@H](C)N(C)C(=O)[C@H](CCCNC(N)=O)NC(=O)[C@H](Cc2ccc(-c3ccccc3)cc2)NC1=O` [Compound 1636] ({CH2CO}-Y(Carboxymethyl)[Phe(4-COOH)]DWL[Bip][Cit][NMeA][dL][Dab][Cha]VSC-NH2; thioether N-14), the IC50 stood at 0.01 µM.
